Test results published in patent publication US20180194762A1 (Pharmacyclics LLC, priority 2017, published 2018).

Assays:
Type in all cases: biochemical
panel of kinases = target: T1, panel of kinases (Homo sapiens, UniProt P51813); test: Inhibition of a panel of kinases (in vitro HotSpot kinase assay, 33P-ATP, 1 μM ATP), other kinases; conditions: BMX wild-type, read-out: BMX-WT IC50
T1 sequence (P51813 1-675): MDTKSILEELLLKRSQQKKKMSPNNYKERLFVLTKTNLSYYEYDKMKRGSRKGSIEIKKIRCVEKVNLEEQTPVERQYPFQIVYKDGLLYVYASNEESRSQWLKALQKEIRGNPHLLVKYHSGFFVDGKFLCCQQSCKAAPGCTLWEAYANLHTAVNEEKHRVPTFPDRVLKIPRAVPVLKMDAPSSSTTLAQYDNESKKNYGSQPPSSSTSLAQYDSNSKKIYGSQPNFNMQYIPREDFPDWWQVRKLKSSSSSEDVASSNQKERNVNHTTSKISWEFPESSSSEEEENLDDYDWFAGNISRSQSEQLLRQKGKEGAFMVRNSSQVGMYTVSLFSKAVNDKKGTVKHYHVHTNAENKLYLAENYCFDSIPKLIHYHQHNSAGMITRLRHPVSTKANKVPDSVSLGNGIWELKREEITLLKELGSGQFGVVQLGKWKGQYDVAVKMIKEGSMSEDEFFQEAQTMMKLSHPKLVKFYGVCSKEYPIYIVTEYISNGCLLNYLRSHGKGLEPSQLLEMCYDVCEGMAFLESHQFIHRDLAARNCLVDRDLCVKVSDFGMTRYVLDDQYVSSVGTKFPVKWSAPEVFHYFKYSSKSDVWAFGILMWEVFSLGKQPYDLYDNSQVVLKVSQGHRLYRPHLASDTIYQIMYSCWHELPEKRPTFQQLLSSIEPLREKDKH
Protocol: (§1) Example 63: Inhibition of a Panel of Kinases The degree of inhibition of a panel of kinases is determined using the in vitro HotSpot kinase assay (purified enzymes, ^33P-ATP, an appropriate substrate and 1 μM ATP).

Btk = target: T2, Btk (Homo sapiens, UniProt Q06187); test: Btk in vitro inhibitory activity (one of Method A TR-FRET, Method B electrophoretic mobility shift, Method C radiometric filter binding); conditions: wild-type Btk; read-out: Btk-WT IC50
T2 construct: purified from insect cells as a full-length construct containing a N-terminal 6X-His tag; His6 (N); made in house; host or cells: insect cells (Method C)
Protocol: Example 62a: Btk In Vitro Inhibitory Activity (Method A)
Btk kinase activity is determined using a time-resolved fluorescence resonance energy transfer (TR-FRET) methodology. Measurements are performed in a reaction volume of 50 μL using 96-well assay plates. […] The reaction is quenched by the addition of 1.2 equivalents of EDTA (relative to divalent cation) in 25 μL of 1× Lance buffer (Perkin-Elmer). Streptavidin-APC (Perkin-Elmer) and Eu-labeled p-Tyr100 antibody (Perkin-Elmer) in 1× Lance buffer are added in a 25 μL volume to give final concentrations of 100 nM and 2.5 nM, respectively, and the mixture is allowed to incubate for one hour. The TR-FRET signal is measured on a multimode plate reader with an excitation wavelength (λEx) of 330 nm and detection wavelengths (λEm) of 615 and 665 nm. Activity is determined by the ratio of the fluorescence at 665 nm to that at 615 nm. For each compound, enzyme activity is measured at various concentrations of compound. Negative control reactions are performed in the absence of inhibitor in replicates of six, and two no-enzyme controls are used to determine baseline fluorescence levels. Inhibition constants, Ki(app), were obtained using the program BatchKi (Kuzmic et al. (2000), Anal. Biochem. 286:45-50). IC50s are obtained according to the equation:
IC50={Ki(app)/(1+[ATP]/Km^ATP)}+[E]total/2;
For all kinases, [ATP]=Km^ATP, [Btk]total=0.5 nM and [Lck]total=6 nM.
Example 62b: Btk In Vitro Inhibitory Activity (Method B)
Kinase activity is measured in vitro using electrophoretic mobility shift assay. The kinase reactions are assembled in a total volume of 25 μL in 384 well plates. The reactions comprise: BTK enzyme (1 nM, N-terminal His6-tagged, recombinant, full-length, human BTK purified from baculovirus Sf21 insect cell system, 293HEK, or other suitable source), inhibitor, ATP, fluorescently labeled peptide substrate (1 μM, FAM-GEEPLYWSFPAKKK-NH2) in a reaction buffer composed of 100 mM HEPES, pH7.5, 5 mM MgCl2 1 mM DTT, 0.1% bovine serum albumin, 0.01% Triton X-100, and 1% DMSO. The reaction is incubated and is quenched by the addition of termination buffer (100 mM HEPES, pH 7.5, 0.01% Triton X-100, 30 mM EDTA). The terminated reactions are analyzed using a 12 channel LabChip® 3000 microfluidic detection instrument (Caliper Life Sciences). The enzymatic phosphorylation of the peptide results in a change in net charge, enabling electrophoretic separation of product from substrate peptide. As substrate and product peptides are separated, two peaks of fluorescence are observed. Change in the relative fluorescence intensity of the substrate and product peaks is the parameter measured, reflecting enzyme activity. In the presence of an inhibitor, the ratio between product and substrate is altered: the signal of the product decreases, while the signal of the substrate increases.
Activity in each sample is determined as the product to sum ratio (PSR):P/(S+P), where P is the peak height of the product peptide and S is the peak height of the substrate peptide. For each compound, enzyme activity is measured at various concentrations (12 concentrations of compound spaced by 3× dilution intervals). Negative control samples (0%—inhibition in the absence of inhibitor) and positive control samples (100%—inhibition, in the presence of 20 mM EDTA) are assembled in replicates of four and are used to calculate %—inhibition values for each inhibitor at each concentration. Percent inhibition (Pinh) is determined using following equation:
Pinh=(PSR0%−PSRinh)/(PSR0%−PSR100%)*100, where PSRinh is the product sum ratio in the presence of inhibitor, PSR0% is the average product sum ration in the absence of inhibitor and PSR100% is the average product sum ratio in 100%—inhibition control samples.
The IC50 values of inhibitors are determined by 4 parameter sigmoidal dose-response model fitting of the inhibition curves (Pinh versus inhibitor concentration) using XLfit 4 software. […]

TEC = target: T3, TEC (Homo sapiens, UniProt P42680); test: Inhibition of a panel of kinases (in vitro HotSpot kinase assay, 33P-ATP, 1 μM ATP); conditions: for IC50: HotSpot kinase assay, 1 μM ATP; for TEC/Btk: ratio of TEC IC50 to Btk IC50 (selectivity)
T3 sequence (P42680 1-631): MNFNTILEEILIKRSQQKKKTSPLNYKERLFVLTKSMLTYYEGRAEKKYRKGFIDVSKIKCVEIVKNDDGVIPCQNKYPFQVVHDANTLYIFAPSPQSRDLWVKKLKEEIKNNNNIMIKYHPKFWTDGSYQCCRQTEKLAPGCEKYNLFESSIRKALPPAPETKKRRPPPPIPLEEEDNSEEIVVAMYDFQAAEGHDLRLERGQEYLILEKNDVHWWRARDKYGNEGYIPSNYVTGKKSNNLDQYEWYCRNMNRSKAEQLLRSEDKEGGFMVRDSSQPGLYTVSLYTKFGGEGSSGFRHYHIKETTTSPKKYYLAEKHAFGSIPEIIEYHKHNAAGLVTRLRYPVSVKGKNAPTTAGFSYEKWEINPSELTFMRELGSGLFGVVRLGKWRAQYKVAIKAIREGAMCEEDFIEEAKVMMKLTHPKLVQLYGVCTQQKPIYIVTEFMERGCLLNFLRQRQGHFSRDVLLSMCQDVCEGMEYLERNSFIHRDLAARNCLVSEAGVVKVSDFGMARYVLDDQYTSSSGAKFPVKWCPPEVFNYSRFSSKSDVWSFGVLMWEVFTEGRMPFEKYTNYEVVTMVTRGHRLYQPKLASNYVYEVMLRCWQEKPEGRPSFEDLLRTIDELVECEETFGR
Protocol: as §1

T2 sequence (Q06187 whole entry): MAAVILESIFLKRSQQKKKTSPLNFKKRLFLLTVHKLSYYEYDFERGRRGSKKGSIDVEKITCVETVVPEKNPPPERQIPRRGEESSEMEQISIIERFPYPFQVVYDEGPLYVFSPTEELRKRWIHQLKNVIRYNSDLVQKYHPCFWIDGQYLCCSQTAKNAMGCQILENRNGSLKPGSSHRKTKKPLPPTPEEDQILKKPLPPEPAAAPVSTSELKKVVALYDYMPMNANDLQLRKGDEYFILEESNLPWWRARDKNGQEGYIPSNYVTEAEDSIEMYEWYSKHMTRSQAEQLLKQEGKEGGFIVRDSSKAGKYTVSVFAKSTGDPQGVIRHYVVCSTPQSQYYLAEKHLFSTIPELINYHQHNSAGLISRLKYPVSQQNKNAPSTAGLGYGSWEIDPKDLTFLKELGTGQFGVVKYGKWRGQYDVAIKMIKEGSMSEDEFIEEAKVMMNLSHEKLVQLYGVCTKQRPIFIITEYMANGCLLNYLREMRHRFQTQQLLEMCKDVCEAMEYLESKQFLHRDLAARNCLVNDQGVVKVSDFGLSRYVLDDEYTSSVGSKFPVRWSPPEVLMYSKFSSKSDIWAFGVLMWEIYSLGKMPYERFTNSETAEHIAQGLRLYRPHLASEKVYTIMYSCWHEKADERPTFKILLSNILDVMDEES

Row | Structure (SMILES) | IC50 (panel of kinases) [µM] | IC50 (Btk) [µM] | IC50 (TEC) [µM] | TEC/Btk (TEC)
1 | CC(C)(C)c1ccc2c(c1)CCN(Cc1ccc(-c3ccnc4[nH]nc(N[C@@H]5CCN(C=O)C5)c34)cc1F)C2=O [Compound 60, (3R)-3-[(4-{4-[(6-tert-butyl-1-oxo-1,2,3,4-tetrahydroisoquinolin-2-yl)methyl]-3-fluorophenyl}-1H-pyrazolo[3,4-b]pyridin-3-yl)amino]pyrrolidine-1-carbaldehyde] | – | 0.021 | 7.42 | –
2 | C[C@@H]1[C@H](Nc2n[nH]c3nccc(-c4ccc(CNC(=O)c5noc(C(C)(C)C)n5)c(F)c4)c23)CCCN1C(=O)N1CCCC1 [Example 136, 5-tert-butyl-N-{[2-fluoro-4-(3-{[(2R,3R)-2-methyl-1-(pyrrolidine-1-carbonyl)piperidin-3-yl]amino}-1H-pyraozlo[3,4-b]pyridin-4-yl)phenyl]methyl}-1,2,4-oxadiazole-3-carboxamide] | – | 0.129 | 7.93 | 61
3 | CCc1nc(C(=O)NCc2ccc(-c3ccnc4[nH]nc(N[C@@H]5CCNC5)c34)cc2F)no1 [Example 54] | – | > 10 | > 10 | –
4 | CC(C)(C)c1ccc(C(=O)NCc2ccc(-c3ccnc4[nH]nc(N[C@H]5CCN(C=O)C5)c34)cc2F)cc1 [Example 61, 4-tert-butyl-N-{[2-fluoro-4-(3-{[(3S)-1-formylpyrrolidin-3-yl]amino}-1H-pyrazolo[3,4-b]pyridin-4-yl)phenyl]methyl}benzamide] | – | 0.0341 | 5.95 | 174
5 | C[C@@H]1[C@H](Nc2n[nH]c3nccc(-c4ccc(CNC(=O)c5noc(C(C)(C)C)n5)c(F)c4)c23)CCCN1C(=O)NCC(F)(F)F [Example 137, (2R,3R)-3-{[4-(4-{[(5-tert-butyl-1,2,4-oxadiazol-3-yl)formamido]methyl}-3-fluorophenyl)-1H-pyrazolo[3,4-b]pyridin-3-yl]amino}-2-methyl-N-(2,2,2-trifluoroethyl)piperidine-1-carboxamide] | – | > 10 | > 10 | –
6 | C[C@H](NC(=O)c1noc(C(C)(C)C)n1)c1ccc(-c2ccnc3[nH]nc(N[C@@H]4CCN(C=O)C4)c23)cc1 [Example 96, 5-tert-butyl-N-[(1S)-1-[4-(3-{[(3R)-1-formylpyrrolidin-3-yl]amino}-1H-pyrazolo[3,4-b]pyridin-4-yl)phenyl]ethyl]-1,2,4-oxadiazole-3-carboxamide] | – | > 10 | 9.64 | –

Other lines, results leading:

Row | IC50 (panel of kinases) [µM] | IC50 (Btk) [µM] | IC50 (TEC) [µM] | TEC/Btk (TEC) | Structure (SMILES)
7 | 4.86 | – | – | – | Cc1nc(C(=O)NCc2ccc(-c3ccnc4[nH]nc(N[C@@H]5CC[C@H](C)N(C(=O)N(C)C)C5)c34)cc2F)oc1C [Example 194, (2S,5R)-5-{[4-(4-{[(4,5-dimethyl-1,3-oxazole-2-carbonyl)amino]methyl}-3-fluorophenyl)-1H-pyrazolo[3,4-b]pyridin-3-yl]amino}-N,N,2-trimethylpiperidine-1-carboxamide]
8 | – | 0.03 | 3.05 | 102 | C[C@@H]1[C@H](Nc2n[nH]c3nccc(-c4ccc(CNC(=O)c5noc(C(C)(C)C)n5)c(F)c4)c23)CCCN1S(=O)(=O)C1CC1 [Example 141, 5-tert-butyl-N-{[4-(3-{[(2R,3R)-1-(cyclopropanesulfonyl)-2-methylpiperidin-3-yl]amino}-1H-pyrazolo[3,4-b]pyridin-4-yl)-2-fluorophenyl]methyl}-1,2,4-oxadiazole-3-carboxamide]
9 | – | 0.0038 | 1.09 | 287 | CC(C)(C)c1nc(C(=O)NCc2ccc(-c3ccnc4[nH]nc(O[C@@H]5CCN(C=O)C5)c34)cc2F)no1 [Example 273, 5-tert-butyl-N-[(2-fluoro-4-{3-[(1-formylpyrrolidin-3-yl)oxy]-1H-pyrazolo[3,4-b]pyridin-4-yl}phenyl)methyl]-1,2,4-oxadiazole-3-carboxamide]
10 | – | 0.0505 | 3.9 | – | CC(=O)N[C@@H]1CCN(c2n[nH]c3nccc(-c4ccc(CNC(=O)c5ccc(C(C)(C)O)cc5F)c(F)c4)c23)C1 [Example 423, N-[(4-{3-[(3R)-3-acetamidopyrrolidin-1-yl]-1H-pyrazolo[3,4-b]pyridin-4-yl}-2-fluorophenyl)methyl]-2-fluoro-4-(2-hydroxypropan-2-yl)benzamide]
11 | – | 0.0464 | 5.76 | 124 | C[C@@H]1[C@H](Nc2n[nH]c3nccc(-c4ccc(CNC(=O)c5noc(C(C)(C)C)n5)c(F)c4)c23)CCCN1C(=O)CC#N [Example 139, 5-tert-butyl-N-{[4-(3-{[(2R,3R)-1-(2-cyanoacetyl)-2-methylpiperidin-3-yl]amino}-1H-pyrazolo[3,4-b]pyridin-4-yl)-2-fluorophenyl]methyl}-1,2,4-oxadiazole-3-carboxamide]
12 | – | 0.111 | 5.87 | 053 | CC(C)(C)c1nc(C(=O)NC2(c3ccc(-c4ccnc5[nH]nc(NC6CCCN(C=O)C6)c45)cc3)CC2)no1 (centres unmarked) [Example 271, 5-tert-butyl-N-[1-(4-{3-[(1-formylpiperidin-3-yl)amino]-1H-pyrazolo[3,4-b]pyridin-4-yl}phenyl)cyclopropyl]-1,2,4-oxadiazole-3-carboxamide]
